# Calls of active or inactive are those of the source. No cut-off for these calls is given here.
# Legend:
# [1] = target: T1, Tryptophan 5-hydroxylase 1 (Homo sapiens, UniProt P17752); experiment: Inhibition of TPH1
# T1 sequence (P17752 whole entry): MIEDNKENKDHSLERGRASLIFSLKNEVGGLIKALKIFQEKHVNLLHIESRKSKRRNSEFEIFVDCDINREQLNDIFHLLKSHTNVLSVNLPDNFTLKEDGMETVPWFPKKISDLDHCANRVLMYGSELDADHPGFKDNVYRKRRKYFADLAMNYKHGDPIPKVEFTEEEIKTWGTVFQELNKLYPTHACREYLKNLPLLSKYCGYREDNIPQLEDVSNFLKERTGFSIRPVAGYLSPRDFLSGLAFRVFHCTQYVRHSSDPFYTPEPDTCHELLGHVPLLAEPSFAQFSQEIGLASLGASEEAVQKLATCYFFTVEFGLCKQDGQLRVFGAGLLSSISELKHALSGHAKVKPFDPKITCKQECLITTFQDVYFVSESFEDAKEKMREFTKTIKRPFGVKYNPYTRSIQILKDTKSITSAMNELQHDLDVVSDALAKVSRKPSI
# [2] = target: T2, Tryptophan 5-hydroxylase 1 (Rattus norvegicus, UniProt P09810); experiment: Inhibition of TPH1 in RBL cells assessed as inhibition of serotonin biosynthesis; type: cell-based
# T2 sequence (P09810 whole entry): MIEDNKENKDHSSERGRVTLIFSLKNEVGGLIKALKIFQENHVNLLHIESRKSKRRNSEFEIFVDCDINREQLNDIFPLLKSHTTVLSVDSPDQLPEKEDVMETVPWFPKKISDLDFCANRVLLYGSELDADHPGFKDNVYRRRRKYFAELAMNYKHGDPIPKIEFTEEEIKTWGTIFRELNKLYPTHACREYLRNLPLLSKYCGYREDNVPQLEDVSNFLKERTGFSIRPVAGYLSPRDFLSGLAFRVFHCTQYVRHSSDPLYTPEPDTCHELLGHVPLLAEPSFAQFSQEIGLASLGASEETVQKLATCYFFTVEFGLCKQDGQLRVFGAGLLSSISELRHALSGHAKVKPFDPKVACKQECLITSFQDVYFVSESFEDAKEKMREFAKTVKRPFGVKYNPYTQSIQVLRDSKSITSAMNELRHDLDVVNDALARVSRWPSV
# RBL = experiment: Ratio of EC50 for TPH1 in RBL cells to IC50 for TPH1; type: cell-based
# [3] = Volume of distribution at steady state in C57 albino mouse 1 mg/kg, iv; type: ADME, organism-based; parameters: dose 1 mg/kg, route intravenous; conditions: in vivo, read-out: Vdss
# [4] = Half life in C57 albino mouse at 1 mg/kg, iv; type: ADME, organism-based; parameters: dose 1 mg/kg, route intravenous; conditions: in vivo
# [5] = Tmax in C57 albino mouse at 10 mg/kg, po; type: ADME, organism-based; parameters: dose 10 mg/kg, route oral; conditions: in vivo
# [6] = Cmax in C57 albino mouse at 10 mg/kg, po; type: ADME, organism-based; parameters: dose 10 mg/kg, route oral; conditions: in vivo
# [7] = AUC (0 to 6 hrs) in C57 albino mouse at 1 mg/kg, iv; type: ADME, organism-based; parameters: time < 6 hr, dose 1 mg/kg, route intravenous; conditions: plasma
# [8] = AUC (0 to 24 hrs) in C57 albino mouse at 10 mg/kg, po; type: ADME, organism-based; parameters: time < 24 hr, dose 10 mg/kg, route oral; conditions: plasma
# [9] = AUC (0 to infinity) in C57 albino mouse at 1 mg/kg, iv; type: ADME, organism-based; parameters: time infinity, dose 1 mg/kg, route intravenous; conditions: plasma
# [10] = Oral bioavailability in C57 albino mouse at 10 mg/kg; type: ADME, organism-based; conditions: in vivo
# [11] = Drug level in C57 albino mouse brain at 10 mg/kg, po after 2 hrs; type: ADME, organism-based; parameters: dose 10 mg/kg, route oral; conditions: read-out: Drug uptake
# [12] = Drug level in C57 albino mouse brain at 10 mg/kg, po after 6 hrs; type: ADME, organism-based; parameters: dose 10 mg/kg, route oral; conditions: read-out: Drug uptake
# [13] = Drug level in C57 albino mouse brain after 24 hrs; type: ADME, tissue-based; conditions: read-out: Drug uptake
# Mus musculus [14] = experiment: Reduction of 5HT level in mouse intestine at 30 mg/kg, po twice a day; type: functional; parameters: scale not given: the % may be the effect or the level left
# Mus musculus [15] = experiment: Reduction of 5HT level in mouse intestine at 90 mg/kg, po twice a day; type: functional; parameters: scale not given: the % may be the effect or the level left
# Mus musculus [16] = experiment: Reduction of 5HT level in mouse colon at 30 mg/kg, po twice a day; type: functional; parameters: scale not given: the % may be the effect or the level left
# Mus musculus [17] = experiment: Reduction of 5HT level in mouse colon at 90 mg/kg, po twice a day; type: functional; parameters: scale not given: the % may be the effect or the level left
# [18] = Ratio of drug level in brain to plasma in C57 albino mouse at 10 mg/kg, po after 2 hrs; type: ADME, organism-based; parameters: dose 10 mg/kg, route oral; conditions: read-out: BPR
# [19] = Ratio of drug level in brain to plasma in C57 albino mouse at 10 mg/kg, po after 6 hrs; type: ADME, organism-based; parameters: dose 10 mg/kg, route oral; conditions: read-out: BPR
# [20] = Half life in C57 albino mouse at 10 mg/kg, po; type: ADME, organism-based; parameters: dose 10 mg/kg, route oral; conditions: in vivo
# [21] = AUC (0 to infinity) in C57 albino mouse at 10 mg/kg, po; type: ADME, organism-based; parameters: time infinity, dose 10 mg/kg, route oral; conditions: plasma
# [22] = Clearance in C57 albino mouse plasma at 1 mg/kg, iv; type: ADME, organism-based; parameters: dose 1 mg/kg, route intravenous
# Mus musculus [23] = experiment: Reduction of 5HT level in mouse intestine at 45 mg/kg, po twice a day after 3 days; type: functional, organism-based; parameters: dose 45 mg/kg
# Mus musculus [24] = experiment: Reduction of 5HT level in mouse intestine at 90 mg/kg, po twice a day after 3 days; type: functional, organism-based; parameters: dose 90 mg/kg
# Mus musculus [25] = experiment: Reduction of 5HT level in mouse brain at 45 mg/kg, po twice a day after 3 days; type: functional, organism-based; parameters: dose 45 mg/kg
# Mus musculus [26] = experiment: Reduction of 5HT level in mouse brain at 90 mg/kg, po twice a day after 3 days; type: functional, organism-based; parameters: dose 90 mg/kg
smiles,measurement,setting,value
C[C@@H](Oc1cc(-c2ccc(C[C@H](N)C(=O)O)cc2)nc(N)n1)c1ccc2ccccc2c1,IC50,[1],380 nM
same,EC50,[2],11000 nM
N[C@@H](Cc1ccc(-c2cnc(NCc3ccc(-c4ccccc4)cc3)cn2)cc1)C(=O)O,IC50,[1],44 nM
C[C@@H](Nc1nc(N)nc(-c2ccc(CC(N)C(=O)O)nc2)n1)c1ccc2ccccc2c1 (some centres not stated),IC50,[1],890 nM
N[C@@H](Cc1ccc(-c2cnc(NCc3ccoc3)cn2)cc1)C(=O)O,IC50,[1],960 nM
COc1ccc(CNc2cnc(-c3ccc(C[C@H](N)C(=O)O)cc3)cn2)cc1OC1CCCC1,IC50,[1],45 nM
Nc1nc(OC(c2ccccc2-c2ccco2)C(F)(F)F)cc(-c2ccc(C[C@H](N)C(=O)O)cc2)n1 (some centres not stated),IC50,[1],24 nM
same,EC50,[2],48 nM
C[C@@H](Nc1nc(N)nc(-c2ccc(CC(C)(N)C(=O)O)cc2)n1)c1ccc2ccccc2c1 (some centres not stated),IC50,[1],11100 nM
N[C@@H](Cc1ccc(-c2cnc(NCC3CCCCC3)cn2)cc1)C(=O)O,IC50,[1],240 nM
C[C@@H](Nc1nc(N)nc(-c2ccc(CC(N)C(=O)O)c(F)c2)n1)c1ccc2ccccc2c1 (some centres not stated),IC50,[1],200 nM
C[C@@H](Nc1nc(N)nc(-c2ccn(C[C@H](N)C(=O)O)n2)n1)c1ccc2ccccc2c1,IC50,[1],12600 nM
N#Cc1ccc(CNc2cnc(-c3ccc(C[C@H](N)C(=O)O)cc3)cn2)cc1,IC50,[1],110 nM
Nc1nc(OC(c2ccccc2-n2ccc(C(F)(F)F)n2)C(F)(F)F)cc(-c2ccc(C[C@H](N)C(=O)O)cc2)n1 (some centres not stated),IC50,[1],29 nM
same,EC50,[2],70 nM
CCn1c2ccccc2c2cc(CNc3ccc(-c4ccc(C[C@H](N)C(=O)O)cc4)nc3)ccc21,IC50,[1],> 10000 nM
Cc1ccccc1-c1ccccc1CNc1cnc(-c2ccc(C[C@H](N)C(=O)O)cc2)cn1,IC50,[1],40 nM
Cc1cccc(-c2ccccc2C(Oc2cc(-c3ccc(C[C@H](N)C(=O)O)cc3)nc(N)n2)C(F)(F)F)c1 (some centres not stated),IC50,[1],70 nM
same,EC50,[2],56 nM
COc1ccc(CNc2cnc(-c3ccc(C[C@H](N)C(=O)O)cc3)cn2)cc1OC,IC50,[1],69 nM
Nc1nc(NCc2ccc3ccccc3c2)nc(-c2ccc(C[C@H](N)C(=O)O)cc2)n1,IC50,[1],24 nM
Nc1nc(OC(c2ccc3ccccc3c2)C(F)(F)F)cc(-c2ccc(C[C@H](N)C(=O)O)cc2)n1 (some centres not stated),Ratio,RBL,3
same,IC50,[1],180 nM
same,EC50,[2],510 nM
C[C@@H](Nc1nc(N)nc(-c2cccc(CC(N)C(=O)O)c2)n1)c1ccc2ccccc2c1 (some centres not stated),IC50,[1],> 11000 nM
C[C@@H](Nc1cc(-c2ccc(C[C@H](N)C(=O)O)cc2)nc(N)n1)c1ccc2ccccc2c1,IC50,[1],32 nM
same,EC50,[2],1700 nM
N[C@@H](Cc1ccc(-c2cnc(NCc3ccc4ccccc4c3)cn2)cc1)C(=O)O,IC50,[1],13 nM
N[C@@H](Cc1ccc(-c2cnc(NCc3cnc4ccccc4c3)cn2)cc1)C(=O)O,IC50,[1],190 nM
N[C@@H](Cc1ccc(-c2cnc(NCC3CCc4ccccc4C3)cn2)cc1)C(=O)O (some centres not stated),IC50,[1],46 nM
Nc1nc(OC(c2ccc(-c3cccc(F)c3)cc2)C(F)(F)F)cc(-c2ccc(C[C@H](N)C(=O)O)cc2)n1 (some centres not stated),Vd,[3],0.73 L/kg
same,half-life,[4],3.26 h
same,Tmax,[5],3.25 h
same,Cmax,[6],641 nM
same,AUC(0-t) at 6 h,[7],6.2 µM·h
same,AUC(0-t) at 24 h,[8],6.09 µM·h
same,AUC(0-inf),[9],8.54 µM·h
same,bioavailability,[10],7.6%
same,concentration at 2 h,[11],6.05 nM
same,concentration at 6 h,[12],6.15 nM
same,concentration at 24 h,[13],0.38 nM
same,Activity,Mus musculus [14],55%
same,Activity,Mus musculus [15],70%
same,Activity,Mus musculus [16],24%
same,Activity,Mus musculus [17],36%
same,Kp at 2 h,[18],0.01
same,Kp at 6 h,[19],0.01
same,half-life,[20],5.98 h
same,AUC(0-inf),[21],6.5 µM·h
same,clearance,[22],3.33 mL/min/kg
N[C@@H](Cc1ccc(-c2cnc(NCc3ccccn3)cn2)cc1)C(=O)O,IC50,[1],6150 nM
COc1ccc(CNc2ccc(-c3ccc(C[C@H](N)C(=O)O)cc3)nn2)cc1OC1CCCC1,IC50,[1],970 nM
C[C@@H](Nc1nc(N)nc(-c2ccc(C(N)CC(=O)O)cc2)n1)c1ccc2ccccc2c1 (some centres not stated),IC50,[1],3770 nM
CCn1c2ccccc2c2cc(CNc3cnc(-c4ccc(C[C@H](N)C(=O)O)cc4)cn3)ccc21,IC50,[1],31 nM
C[C@@H](Nc1nc(N)nc(N2CCC(C[C@H](N)C(=O)O)CC2)n1)c1ccc2ccccc2c1,IC50,[1],770 nM
CCOC(=O)[C@@H](N)Cc1ccc(-c2cc(OC(c3ccc(-c4cccc(F)c4)cc3)C(F)(F)F)nc(N)n2)cc1 (some centres not stated),Activity,Mus musculus [23],Active
same,Activity,Mus musculus [24],Active
same,Activity,Mus musculus [25],inactive
same,Activity,Mus musculus [26],Active
COc1ccc(CNc2ccc(-c3ccc(C[C@H](N)C(=O)O)cc3)cc2)cc1OC1CCCC1,IC50,[1],> 10000 nM
Nc1nc(OC(c2sccc2-c2ccco2)C(F)(F)F)cc(-c2ccc(C[C@H](N)C(=O)O)cc2)n1 (some centres not stated),IC50,[1],54 nM
same,EC50,[2],63 nM
